Test results from ChEMBL document CHEMBL3885861, “Open TG-GATES”.

Species: Rattus norvegicus
Test: Open TG-GATES - Regimen: Daily Repeat
Assay type: toxicity, organism-based, Sprague-Dawley
Design: regimen Daily Repeat, gender Male, age 6 weeks
Conditions: in vivo, po, route gavage; for APTT / Bas / Eos / Fbg / Hb / Ht / Lym / MCH / MCHC / MCV / Mono / Neu / PT / Plat / RBC / Ret / WBC: tissue Blood; for KIDNEY_L / KIDNEY_R / KIDNEY_TOTAL: tissue Kidney; for LIVER: tissue Liver; for A/G / ALP / ALT / AST / BUN / CRE / Ca / Cl / DBIL / GLC / IP / K / LDH / Na / PL / RALB / TBIL / TC / TG / TP / gamma-GTP: tissue Plasma
[1] = 10 mg/kg, 72 h, dose level Middle, time 3 day
[2] = 10 mg/kg, […], dose level Middle, time 7 day
[3] = 10 mg/kg, […], dose level Middle, time 14 day
[4] = 10 mg/kg, […], dose level Middle, time 28 day
[5] = 30 mg/kg, 72 h, dose level High, time 3 day
[6] = 30 mg/kg, […], dose level High, time 7 day
[7] = 30 mg/kg, […], dose level High, time 14 day
[8] = 30 mg/kg, […], dose level High, time 28 day

## Nc1c2c(nc3ccccc13)CCCC2 [TACRINE]
[1]
  TERMINAL_BW: 217.3 g
  APTT: 19.9 s
  Bas: 0%
  Eos: 1%
  Fbg: 290 mg/dL
  Hb: 13.5 g/dL
  Ht: 38.4%
  Lym: 76.8%
  MCH: 21 pg
  MCHC: 35.3%
  MCV: 59.5 fL
  Mono: 2.2%
  Neu: 19.2%
  PT: 15.7 s
  Plat: 128 x10_4/uL
  RBC: 645.4 x10_4/ul
  Ret: 5.5%
  WBC: 74.8 x10_2/uL
  KIDNEY_L: 0.9 g
  KIDNEY_R: 1 g
  KIDNEY_TOTAL: 1.9 g
  LIVER: 9.2 g
  A/G: 1.2
  ALP: 1488.6 IU/L
  ALT: 42.6 IU/L
  AST: 75.4 IU/L
  BUN: 14.4 mg/dL
  CRE: 0.2 mg/dL
  Ca: 10.6 mg/dL
  Cl: 108 meq/L
  DBIL: 0 mg/dL
  GLC: 186.2 mg/dL
  IP: 7.1 mg/dL
  K: 4.4 meq/L
  LDH: 253 IU/L
  Na: 142 meq/L
  PL: 153.6 mg/dL
  RALB: 3.1 g/dL
  TBIL: 0.014 mg/dL
  TC: 78.6 mg/dL
  TG: 94.4 mg/dL
  TP: 5.7 g/dL
  gamma-GTP: 1 IU/L
[2]
  TERMINAL_BW: 245.3 g
  APTT: 22.4 s
  Bas: 0%
  Eos: 0.6%
  Fbg: 307.4 mg/dL
  Hb: 14 g/dL
  Ht: 40.1%
  Lym: 77.4%
  MCH: 20.9 pg
  MCHC: 34.8%
  MCV: 60 fL
  Mono: 2.2%
  Neu: 18.8%
  PT: 15.8 s
  Plat: 117.3 x10_4/uL
  RBC: 668 x10_4/ul
  Ret: 5.4%
  WBC: 103.5 x10_2/uL
  KIDNEY_L: 1 g
  KIDNEY_R: 1.1 g
  KIDNEY_TOTAL: 2.1 g
  LIVER: 10.5 g
  A/G: 1.2
  ALP: 1555.6 IU/L
  ALT: 42.2 IU/L
  AST: 82.8 IU/L
  BUN: 15.8 mg/dL
  CRE: 0.2 mg/dL
  Ca: 10.6 mg/dL
  Cl: 108.2 meq/L
  DBIL: 0.004 mg/dL
  GLC: 180 mg/dL
  IP: 6.8 mg/dL
  K: 4.1 meq/L
  LDH: 235.6 IU/L
  Na: 141 meq/L
  PL: 145.2 mg/dL
  RALB: 3 g/dL
  TBIL: 0.024 mg/dL
  TC: 72.2 mg/dL
  TG: 120.8 mg/dL
  TP: 5.5 g/dL
  gamma-GTP: 1 IU/L
[3]
  TERMINAL_BW: 297.7 g
  APTT: 23.1 s
  Bas: 0%
  Eos: 0.8%
  Fbg: 317.6 mg/dL
  Hb: 14.7 g/dL
  Ht: 41.8%
  Lym: 84.4%
  MCH: 20.8 pg
  MCHC: 35.1%
  MCV: 59.4 fL
  Mono: 1.4%
  Neu: 12.6%
  PT: 15.5 s
  Plat: 117.2 x10_4/uL
  RBC: 704.4 x10_4/ul
  Ret: 4.3%
  WBC: 95.3 x10_2/uL
  KIDNEY_L: 1.1 g
  KIDNEY_R: 1.2 g
  KIDNEY_TOTAL: 2.3 g
  LIVER: 12.6 g
  A/G: 1.2
  ALP: 1291.4 IU/L
  ALT: 36.8 IU/L
  AST: 67.8 IU/L
  BUN: 18.4 mg/dL
  CRE: 0.2 mg/dL
  Ca: 10.8 mg/dL
  Cl: 108 meq/L
  DBIL: 0 mg/dL
  GLC: 185.2 mg/dL
  IP: 6.4 mg/dL
  K: 4 meq/L
  LDH: 168 IU/L
  Na: 142.6 meq/L
  PL: 152.6 mg/dL
  RALB: 3.2 g/dL
  TBIL: 0.004 mg/dL
  TC: 75 mg/dL
  TG: 136.2 mg/dL
  TP: 5.8 g/dL
  gamma-GTP: 1 IU/L
[4]
  TERMINAL_BW: 336.4 g
  APTT: 22.6 s
  Bas: 0%
  Eos: 1%
  Fbg: 301.8 mg/dL
  Hb: 15.1 g/dL
  Ht: 41.2%
  Lym: 79.6%
  MCH: 20.1 pg
  MCHC: 36.7%
  MCV: 54.7 fL
  Mono: 2%
  Neu: 16.6%
  PT: 16.4 s
  Plat: 93.2 x10_4/uL
  RBC: 752 x10_4/ul
  Ret: 2.9%
  WBC: 95.4 x10_2/uL
  KIDNEY_L: 1.2 g
  KIDNEY_R: 1.2 g
  KIDNEY_TOTAL: 2.4 g
  LIVER: 12.9 g
  A/G: 1.1
  ALP: 1046.8 IU/L
  ALT: 37 IU/L
  AST: 63.4 IU/L
  BUN: 18.8 mg/dL
  CRE: 0.2 mg/dL
  Ca: 10.5 mg/dL
  Cl: 107.4 meq/L
  DBIL: 0 mg/dL
  GLC: 188.8 mg/dL
  IP: 6.7 mg/dL
  K: 4.1 meq/L
  LDH: 116 IU/L
  Na: 141.8 meq/L
  PL: 142 mg/dL
  RALB: 3.1 g/dL
  TBIL: 0.006 mg/dL
  TC: 70.4 mg/dL
  TG: 121 mg/dL
  TP: 5.9 g/dL
  gamma-GTP: 1.2 IU/L
[5]
  TERMINAL_BW: 194.7 g
  APTT: 21.3 s
  Bas: 0%
  Eos: 0.7%
  Fbg: 361.7 mg/dL
  Hb: 14.3 g/dL
  Ht: 40.7%
  Lym: 73%
  MCH: 21 pg
  MCHC: 35.1%
  MCV: 59.8 fL
  Mono: 2.7%
  Neu: 22%
  PT: 16.1 s
  Plat: 120.4 x10_4/uL
  RBC: 681.7 x10_4/ul
  Ret: 3%
  WBC: 79 x10_2/uL
  KIDNEY_L: 0.9 g
  KIDNEY_R: 0.9 g
  KIDNEY_TOTAL: 1.9 g
  LIVER: 8.6 g
  A/G: 1.2
  ALP: 1465.3 IU/L
  ALT: 37.3 IU/L
  AST: 82.7 IU/L
  BUN: 16.3 mg/dL
  CRE: 0.2 mg/dL
  Ca: 10.8 mg/dL
  Cl: 107.3 meq/L
  DBIL: 0.0067 mg/dL
  GLC: 169 mg/dL
  IP: 7.4 mg/dL
  K: 4.1 meq/L
  LDH: 229.7 IU/L
  Na: 140.7 meq/L
  PL: 142.7 mg/dL
  RALB: 3.2 g/dL
  TBIL: 0.0233 mg/dL
  TC: 84 mg/dL
  TG: 52 mg/dL
  TP: 5.8 g/dL
  gamma-GTP: 1 IU/L
[6]
  TERMINAL_BW: 217.1 g
  APTT: 22.7 s
  Bas: 0%
  Eos: 0.7%
  Fbg: 325.7 mg/dL
  Hb: 14.2 g/dL
  Ht: 40.2%
  Lym: 73%
  MCH: 21.1 pg
  MCHC: 35.3%
  MCV: 59.7 fL
  Mono: 3.3%
  Neu: 22.3%
  PT: 16.2 s
  Plat: 127.6 x10_4/uL
  RBC: 673.7 x10_4/ul
  Ret: 4.7%
  WBC: 124.6 x10_2/uL
  KIDNEY_L: 1 g
  KIDNEY_R: 1 g
  KIDNEY_TOTAL: 1.9 g
  LIVER: 8.9 g
  A/G: 1.2
  ALP: 923 IU/L
  ALT: 41 IU/L
  AST: 79.7 IU/L
  BUN: 15 mg/dL
  CRE: 0.2 mg/dL
  Ca: 10.9 mg/dL
  Cl: 105.7 meq/L
  DBIL: 0.0033 mg/dL
  GLC: 176.3 mg/dL
  IP: 9.6 mg/dL
  K: 4.2 meq/L
  LDH: 268.3 IU/L
  Na: 141 meq/L
  PL: 140.7 mg/dL
  RALB: 3 g/dL
  TBIL: 0.0167 mg/dL
  TC: 70.7 mg/dL
  TG: 95.7 mg/dL
  TP: 5.6 g/dL
  gamma-GTP: 1 IU/L
[7]
  TERMINAL_BW: 249.3 g
  APTT: 23.8 s
  Bas: 0%
  Eos: 1%
  Fbg: 320 mg/dL
  Hb: 15.1 g/dL
  Ht: 41.9%
  Lym: 79.3%
  MCH: 20.4 pg
  MCHC: 36%
  MCV: 56.8 fL
  Mono: 1.7%
  Neu: 17.3%
  PT: 15.8 s
  Plat: 126 x10_4/uL
  RBC: 737.3 x10_4/ul
  Ret: 3.5%
  WBC: 110.7 x10_2/uL
  KIDNEY_L: 1.1 g
  KIDNEY_R: 1.1 g
  KIDNEY_TOTAL: 2.2 g
  LIVER: 9.8 g
  A/G: 1.2
  ALP: 1172 IU/L
  ALT: 39 IU/L
  AST: 74.7 IU/L
  BUN: 19.7 mg/dL
  CRE: 0.2 mg/dL
  Ca: 10.9 mg/dL
  Cl: 106.3 meq/L
  DBIL: 0 mg/dL
  GLC: 174 mg/dL
  IP: 8.1 mg/dL
  K: 4.6 meq/L
  LDH: 212.7 IU/L
  Na: 141 meq/L
  PL: 143 mg/dL
  RALB: 3 g/dL
  TBIL: 0.02 mg/dL
  TC: 69.3 mg/dL
  TG: 104 mg/dL
  TP: 5.5 g/dL
  gamma-GTP: 1 IU/L
[8]
  TERMINAL_BW: 315.1 g
  APTT: 21.4 s
  Bas: 0%
  Eos: 1%
  Fbg: 295 mg/dL
  Hb: 15 g/dL
  Ht: 41.2%
  Lym: 74%
  MCH: 20.1 pg
  MCHC: 36.4%
  MCV: 55.1 fL
  Mono: 2%
  Neu: 22%
  PT: 16.5 s
  Plat: 114.6 x10_4/uL
  RBC: 748 x10_4/ul
  Ret: 3.3%
  WBC: 119.9 x10_2/uL
  KIDNEY_L: 1.2 g
  KIDNEY_R: 1.2 g
  KIDNEY_TOTAL: 2.4 g
  LIVER: 11.2 g
  A/G: 1
  ALP: 1280 IU/L
  ALT: 35 IU/L
  AST: 81 IU/L
  BUN: 17 mg/dL
  CRE: 0.2 mg/dL
  Ca: 10.4 mg/dL
  Cl: 106 meq/L
  DBIL: 0 mg/dL
  GLC: 160 mg/dL
  IP: 8.2 mg/dL
  K: 4.2 meq/L
  LDH: 96 IU/L
  Na: 143 meq/L
  PL: 128 mg/dL
  RALB: 2.9 g/dL
  TBIL: 0.03 mg/dL
  TC: 71 mg/dL
  TG: 64 mg/dL
  TP: 5.7 g/dL
  gamma-GTP: 1 IU/L
